According to ChEMBL document CHEMBL3045201, “Quantitative Structure-Activity Relationships of Fluazinam and Related Fungicidal N-phenylpyridinamines” (1996):
Calls of active or inactive are those of the source. No cut-off for these calls is given here.

Experiments:
[1] = test system: Podosphaera fuliginea; experiment: Fungicidal activity against Podosphaera fuliginea infected in 24 hr compound pre-treated cucumber plant assessed as disease control measured after 10 days; type: functional
[2] = test system: Pyricularia oryzae; experiment: Fungicidal activity against Magnaporthe oryzae infected in 24 hr compound pre-treated Oryza sativa cv. Chukyoasahi assessed as disease control measured after 10 days; type: functional
[3] = test system: Rhizoctonia solani; experiment: Fungicidal activity against Rhizoctonia solani infected in 24 hr compound pre-treated Oryza sativa cv. Chukyoasahi assessed as disease control measured after 10 days; type: functional
[4] = test system: Podosphaera fuliginea; experiment: Fungicidal activity against Podosphaera fuliginea assessed as SH-inhibition; type: functional, organism-based
[5] = test system: Pyricularia oryzae; experiment: Fungicidal activity against Magnaporthe oryzae assessed as mitochondrial uncoupling activity; type: functional, organism-based
[6] = test system: Botrytis cinerea; experiment: Fungicidal activity against Botryotinia fuckeliana assessed as SH-inhibition; type: functional, organism-based
[7] = test system: Podosphaera fuliginea; experiment: Fungicidal activity against Podosphaera fuliginea assessed as mitochondrial uncoupling activity; type: functional, organism-based
[8] = test system: Rhizoctonia solani; experiment: Fungicidal activity against Rhizoctonia solani assessed as SH-inhibition; type: functional, organism-based
[9] = test system: Rhizoctonia solani; experiment: Fungicidal activity against Rhizoctonia solani assessed as mitochondrial uncoupling activity; type: functional, organism-based
[10] = test system: Pyricularia oryzae; experiment: Fungicidal activity against Magnaporthe oryzae assessed as SH-inhibition; type: functional, organism-based
[11] = test system: Botrytis cinerea; experiment: Fungicidal activity against Botryotinia fuckeliana assessed as mitochondrial uncoupling activity; type: functional, organism-based
[12] = organism: Rattus norvegicus; experiment: Inhibition of mitochondrial uncoupling in Rattus norvegicus (rat); type: functional, organism-based

Structure (SMILES) | I90 [1] | I90 [2] | I90 [3] | further results
CSc1c(C(F)(F)F)cc([N+](=O)[O-])c(Nc2ncc(C(F)(F)F)cc2Cl)c1[N+](=O)[O-] | 16 ppm | <16 ppm | 16 ppm | –
O=[N+]([O-])c1cc(C(F)(F)F)c(Cl)c([N+](=O)[O-])c1Nc1ncc(C(F)(F)F)cc1Cl [FLUAZINAM] | 63 ppm | <16 ppm | – | Activity [4]: inactive; Activity [5]: Active; Activity [6]: Active; Activity [7]: Active; Activity [8]: Active; Activity [9]: Active; Activity [10]: Active; Activity [11]: inactive; Activity [12]: Active
CCCCOc1c(C(F)(F)F)cc([N+](=O)[O-])c(Nc2ncc(C(F)(F)F)cc2Cl)c1[N+](=O)[O-] | >500 ppm | >500 ppm | >500 ppm | –
C[S+]([O-])c1c(C(F)(F)F)cc([N+](=O)[O-])c(Nc2ncc(C(F)(F)F)cc2Cl)c1[N+](=O)[O-] (centres undefined) | >500 ppm | 63 ppm | >500 ppm | –
O=[N+]([O-])c1cc(C(F)(F)F)c(OCC(F)(F)F)c([N+](=O)[O-])c1Nc1ncc(C(F)(F)F)cc1Cl | 16 ppm | >500 ppm | 63 ppm | –
CCCOc1c(C(F)(F)F)cc([N+](=O)[O-])c(Nc2ncc(C(F)(F)F)cc2Cl)c1[N+](=O)[O-] | >500 ppm | 63 ppm | 16 ppm | –
O=[N+]([O-])c1cc(C(F)(F)F)c(Br)c([N+](=O)[O-])c1Nc1ncc(C(F)(F)F)cc1Cl | 63 ppm | 16 ppm | 63 ppm | –
Nc1c(C(F)(F)F)cc([N+](=O)[O-])c(Nc2ncc(C(F)(F)F)cc2Cl)c1[N+](=O)[O-] | >500 ppm | >500 ppm | >500 ppm | –
COc1c(C(F)(F)F)cc([N+](=O)[O-])c(Nc2ncc(C(F)(F)F)cc2Cl)c1[N+](=O)[O-] | 63 ppm | <16 ppm | 16 ppm | –
CC(C)COc1c(C(F)(F)F)cc([N+](=O)[O-])c(Nc2ncc(C(F)(F)F)cc2Cl)c1[N+](=O)[O-] | >500 ppm | >500 ppm | 63 ppm | –
CCOc1c(C(F)(F)F)cc([N+](=O)[O-])c(Nc2ncc(C(F)(F)F)cc2Cl)c1[N+](=O)[O-] | 16 ppm | 16 ppm | 16 ppm | –
O=[N+]([O-])c1cc(C(F)(F)F)c(I)c([N+](=O)[O-])c1Nc1ncc(C(F)(F)F)cc1Cl | >500 ppm | 16 ppm | >500 ppm | –
